Experimental data as given in patent US11053204B2, “Pyrimidinyloxy benzene derivatives as herbicides” (FMC Corporation, priority 2015, dated 2021).

How the values were obtained:
Assay type in all cases: in vivo
soybean (Glycine max) = assay: Test C preemergence, plant response rating; settings: Glycine max, pre-emergence, Preemergence
Summary of the method: (§1)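 Preemergence: seeds sown in loam–sand blend or silt loam and sprayed with test chemicals in a non-phytotoxic surfactant-containing solvent. Postemergence: potted plants at 2–18 cm (1–4-leaf stage) sprayed with the same formulation. After 13–15 d in greenhouse, visual rating versus controls on 0 (no effect) to 100 (complete control) scale.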

[1] = test system: blackgrass (Alopecurus myosuroides); assay: Test C preemergence, plant response rating; settings: Alopecurus myosuroides, pre-emergence, Preemergence
Summary of the method: as §1

[2] = test system: oilseed rape (Brassica napus); assay: Test C preemergence, plant response rating; settings: Brassica napus, pre-emergence, Preemergence
Summary of the method: as §1

[3] = test system: ryegrass, Italian (Italian ryegrass, Lolium multiflorum); assay: Test C preemergence, plant response rating; settings: Lolium multiflorum, pre-emergence, Preemergence
Summary of the method: as §1

[4] = test system: morningglory (Ipomoea coccinea); assay: Test C preemergence, plant response rating; settings: Ipomoea, pre-emergence, Preemergence
Summary of the method: as §1

[5] = test system: nutsedge, yellow (yellow nutsedge, Cyperus esculentus); assay: Test C preemergence, plant response rating; settings: Cyperus, pre-emergence, Preemergence
Summary of the method: as §1

[6] = test system: lambsquarters (Chenopodium album); assay: Test C preemergence, plant response rating; settings: Chenopodium album, pre-emergence, Preemergence
Summary of the method: as §1

[7] = test system: foxtail, giant (giant foxtail, Setaria faberii); assay: Test C preemergence, plant response rating; settings: Setaria faberi, pre-emergence, Preemergence
Summary of the method: as §1

corn (Zea mays) = assay: Test C preemergence, plant response rating; settings: Zea mays, pre-emergence, Preemergence
Summary of the method: as §1

[8] = test system: waterhemp (common waterhemp, Amaranthus rudis); assay: Test C preemergence, plant response rating; settings: Amaranthus tuberculatus, pre-emergence, Preemergence
Summary of the method: as §1

[9] = test system: ragweed (common ragweed, Ambrosia elatior); assay: Test C preemergence, plant response rating; settings: Ambrosia artemisiifolia, pre-emergence, Preemergence
Summary of the method: as §1

[10] = test system: crabgrass, large (large crabgrass, Digitaria sanguinalis); assay: Test C preemergence, plant response rating; settings: Digitaria sanguinalis, pre-emergence, Preemergence
Summary of the method: as §1

[11] = test system: wheat (winter wheat, Triticum aestivum); assay: Test C preemergence, plant response rating; settings: Triticum aestivum, pre-emergence, Preemergence
Summary of the method: as §1

[12] = test system: velvetleaf (Abutilon theophrasti); assay: Test C preemergence, plant response rating; settings: Abutilon theophrasti, pre-emergence, Preemergence
Summary of the method: as §1

[13] = test system: pigweed (Amaranthus retroflexus); assay: Test A preemergence, visual injury rating; settings: Amaranthus retroflexus, pre-emergence, 240 h, 0 to 100 scale (0 no effect, 100 complete control), read-out: Pigweed plant response rating
Summary of the method: (§2)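 Visual injury scored 0–100 (100 = complete control) against untreated controls about 10 days after treatment in a greenhouse. Test chemicals, formulated with surfactant in non-phytotoxic solvent, were sprayed on soil preemergence or on 2-10 cm, one- to two-leaf plants postemergence.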

[14] = test system: Italian ryegrass (Lolium multiflorum); assay: Test A preemergence, visual injury rating; settings: Lolium multiflorum, pre-emergence, 240 h, 0 to 100 scale (0 no effect, 100 complete control), read-out: Ryegrass, Italian plant response rating
Summary of the method: as §2

[15] = test system: giant foxtail (Setaria faberii); assay: Test A preemergence, visual injury rating; settings: Setaria faberi, pre-emergence, 240 h, 0 to 100 scale (0 no effect, 100 complete control), read-out: Foxtail, Giant plant response rating
Summary of the method: as §2

[16] = test system: ragweed (common ragweed, Ambrosia elatior); assay: Test A preemergence, visual injury rating; settings: Ambrosia artemisiifolia, pre-emergence, 240 h, 0 to 100 scale (0 no effect, 100 complete control), read-out: Ragweed plant response rating
Summary of the method: as §2

CC(CC(F)(F)F)OC(=O)c1c(Br)cccc1Oc1ncc(Cl)cn1 (stereo not shown) [Compound 16, 3,3,3-trifluoro-1-methylpropyl 2-bromo-6-[(5-chloro-2-pyrimidinyl)oxy]benzoate]
90%: pest or weed control at 62 g/ha ([7]; 62 g ai/ha, scale of 0 to 100) | pest or weed control at 62 g/ha ([10]; 62 g ai/ha, scale of 0 to 100) | pest or weed control at 125 g/ha ([13]; 125 g ai/ha) | pest or weed control at 125 g/ha ([15]; 125 g ai/ha)
25%: pest or weed control at 125 g/ha ([4]; 125 g ai/ha, scale of 0 to 100) | pest or weed control at 62 g/ha ([4]; 62 g ai/ha, scale 0 to 100) | pest or weed control at 31 g/ha ([7]; 31 g ai/ha, scale 0 to 100)
60%: plant injury at 62 g/ha ([2]; 62 g ai/ha, scale 0 to 100) | pest or weed control at 31 g/ha ([8]; 31 g ai/ha, scale 0 to 100)
5%: plant injury at 125 g/ha (soybean (Glycine max); 125 g ai/ha, scale of 0 to 100) | pest or weed control at 62 g/ha ([1]; 62 g ai/ha, scale of 0 to 100) | pest or weed control at 125 g/ha ([3]; 125 g ai/ha, scale of 0 to 100) | pest or weed control at 62 g/ha ([3]; 62 g ai/ha, scale 0 to 100) | pest or weed control at 16 g/ha ([7]; 16 g ai/ha, scale 0 to 100) | pest or weed control at 62 g/ha ([9]; 62 g ai/ha, scale 0 to 100) | pest or weed control at 16 g/ha ([10]; 16 g ai/ha, scale 0 to 100) | pest or weed control at 31 g/ha ([12]; 31 g ai/ha, scale 0 to 100)
85%: pest or weed control at 62 g/ha ([8]; 62 g ai/ha, scale 0 to 100)
0%: plant injury at 16 g/ha (soybean (Glycine max); 16 g ai/ha, scale 0 to 100) | plant injury at 31 g/ha (soybean (Glycine max); 31 g ai/ha, scale 0 to 100) | plant injury at 62 g/ha (soybean (Glycine max); 62 g ai/ha, scale 0 to 100) | pest or weed control at 16 g/ha ([1]; 16 g ai/ha, scale 0 to 100) | pest or weed control at 31 g/ha ([1]; 31 g ai/ha, scale 0 to 100) | plant injury at 16 g/ha ([2]; 16 g ai/ha, scale 0 to 100) | pest or weed control at 16 g/ha ([3]; 16 g ai/ha, scale 0 to 100) | pest or weed control at 31 g/ha ([3]; 31 g ai/ha, scale 0 to 100) | pest or weed control at 31 g/ha ([4]; 31 g ai/ha, scale 0 to 100) | pest or weed control at 125 g/ha ([5]; 125 g ai/ha, scale of 0 to 100) | pest or weed control at 16 g/ha ([5]; 16 g ai/ha, scale 0 to 100) | pest or weed control at 31 g/ha ([5]; 31 g ai/ha, scale 0 to 100) | pest or weed control at 62 g/ha ([5]; 62 g ai/ha, scale 0 to 100) | pest or weed control at 16 g/ha ([6]; 16 g ai/ha, scale 0 to 100) | Corn plant response rating (crop injury, 0 = no effect, 100 = complete kill) at 62 g/ha (corn (Zea mays); 62 g ai/ha, scale of 0 to 100) | Corn plant response rating (crop injury, 0 = no effect, 100 = complete kill) at 16 g/ha (corn (Zea mays); 16 g ai/ha, scale 0 to 100) | Corn plant response rating (crop injury, 0 = no effect, 100 = complete kill) at 31 g/ha (corn (Zea mays); 31 g ai/ha, scale 0 to 100) | pest or weed control at 125 g/ha ([9]; 125 g ai/ha, scale of 0 to 100) | pest or weed control at 16 g/ha ([9]; 16 g ai/ha, scale 0 to 100) | pest or weed control at 31 g/ha ([9]; 31 g ai/ha, scale 0 to 100) | plant injury at 125 g/ha ([11]; 125 g ai/ha, scale of 0 to 100) | plant injury at 16 g/ha ([11]; 16 g ai/ha, scale 0 to 100) | plant injury at 31 g/ha ([11]; 31 g ai/ha, scale 0 to 100) | plant injury at 62 g/ha ([11]; 62 g ai/ha, scale 0 to 100) | pest or weed control at 16 g/ha ([12]; 16 g ai/ha, scale 0 to 100) | pest or weed control at 125 g/ha ([14]; 125 g ai/ha) | pest or weed control at 125 g/ha ([16]; 125 g ai/ha) | pest or weed control at 500 g/ha ([16]; 500 g ai/ha)
75%: pest or weed control at 31 g/ha ([10]; 31 g ai/ha, scale 0 to 100) | pest or weed control at 125 g/ha ([12]; 125 g ai/ha, scale of 0 to 100)
50%: plant injury at 31 g/ha ([2]; 31 g ai/ha, scale 0 to 100) | pest or weed control at 125 g/ha ([6]; 125 g ai/ha, scale of 0 to 100) | pest or weed control at 62 g/ha ([12]; 62 g ai/ha, scale 0 to 100)
100%: plant injury at 125 g/ha ([2]; 125 g ai/ha, scale of 0 to 100) | pest or weed control at 125 g/ha ([7]; 125 g ai/ha, scale of 0 to 100) | pest or weed control at 125 g/ha ([8]; 125 g ai/ha, scale of 0 to 100) | pest or weed control at 125 g/ha ([10]; 125 g ai/ha, scale of 0 to 100) | pest or weed control at 500 g/ha ([13]; 500 g ai/ha) | pest or weed control at 500 g/ha ([15]; 500 g ai/ha)
20%: pest or weed control at 31 g/ha ([6]; 31 g ai/ha, scale 0 to 100) | pest or weed control at 62 g/ha ([6]; 62 g ai/ha, scale 0 to 100) | pest or weed control at 500 g/ha ([14]; 500 g ai/ha)
10%: pest or weed control at 125 g/ha ([1]; 125 g ai/ha, scale of 0 to 100) | pest or weed control at 16 g/ha ([4]; 16 g ai/ha, scale 0 to 100) | Corn plant response rating (crop injury, 0 = no effect, 100 = complete kill) at 125 g/ha (corn (Zea mays); 125 g ai/ha, scale of 0 to 100) | pest or weed control at 16 g/ha ([8]; 16 g ai/ha, scale 0 to 100)
